For orientation: IC50 means the concentration at which inhibition is half-maximal. High values mean weaker potency in that assay, low ones greater potency in that assay.

The structures appear in SMILES notation. Read-outs that look alike come from different tables or passages of the source.

The target in test [1] is EGFR L858R/T790M mutant Ba/F3 cells (Homo sapiens, UniProt P00533, T790M/L858R, cells depend on it). Description: Ba/F3 cell proliferation (Cell Titer Glo). It counts as cell-based, murine. The settings on record: 72 hours. The gist of the method:
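Ba/F3 cells retrovirally transduced with the EGFR construct and puromycin-selected (2 μg/ml), grown in RPMI 1640 with 10% FBS. Viability read by Cell Titer Glo luminescence (ATP content), triplicate points, experiments repeated at least three times. Curves fitted by non-linear sigmoidal dose-response regression.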
A general note: In ATP-based viability assays light output follows the ATP content of the culture.

In the next test the target is EGFR L858R/T790M (Homo sapiens, UniProt P00533, L858R/T790M). Description: HTRF-based EGFR biochemical assay (L858R/T790M). As to conditions: 100 μM ATP, enzyme 0.02 nM. Summed up:
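Mutant EGFR preincubated 30 min with compound at room temperature, then reacted 20 min with 1 μM biotinylated tyrosine kinase peptide and 100 μM ATP in 50 mM HEPES pH 7.0, 5 mM MgCl2, 1 mM MnCl2, 0.01% BSA, 2 mM TCEP, 0.1 mM NaVO4. Phosphorylation read by HTRF.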
(In general: In TR-FRET formats the signal depends on donor and acceptor labels being close together.)

For another test, the target named is EGFR L858R (Homo sapiens, UniProt P00533, L858R). Description: HTRF-based EGFR biochemical assay (L858R). As to conditions: 100 μM ATP, enzyme 0.1 nM. Summed up:
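Reaction started with 100 μM ATP (final) for 20 min, then quenched with EDTA. Phosphorylation detected by HTRF (Eu-cryptate anti-phosphotyrosine/Streptavidin-XL665, 665/620 nm).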

Setting [2] is: in combination with 1 μg/ml cetuximab, read-out: Cell IC50 BaF3 L858R/T790M compound + cetuximab.
Setting [3] is: single agent, read-out: Cell IC50 EGFR BaF3 L858R/T790M.

Sequence of EGFR L858R/T790M mutant Ba/F3 cells (P00533 whole entry T790M/L858R): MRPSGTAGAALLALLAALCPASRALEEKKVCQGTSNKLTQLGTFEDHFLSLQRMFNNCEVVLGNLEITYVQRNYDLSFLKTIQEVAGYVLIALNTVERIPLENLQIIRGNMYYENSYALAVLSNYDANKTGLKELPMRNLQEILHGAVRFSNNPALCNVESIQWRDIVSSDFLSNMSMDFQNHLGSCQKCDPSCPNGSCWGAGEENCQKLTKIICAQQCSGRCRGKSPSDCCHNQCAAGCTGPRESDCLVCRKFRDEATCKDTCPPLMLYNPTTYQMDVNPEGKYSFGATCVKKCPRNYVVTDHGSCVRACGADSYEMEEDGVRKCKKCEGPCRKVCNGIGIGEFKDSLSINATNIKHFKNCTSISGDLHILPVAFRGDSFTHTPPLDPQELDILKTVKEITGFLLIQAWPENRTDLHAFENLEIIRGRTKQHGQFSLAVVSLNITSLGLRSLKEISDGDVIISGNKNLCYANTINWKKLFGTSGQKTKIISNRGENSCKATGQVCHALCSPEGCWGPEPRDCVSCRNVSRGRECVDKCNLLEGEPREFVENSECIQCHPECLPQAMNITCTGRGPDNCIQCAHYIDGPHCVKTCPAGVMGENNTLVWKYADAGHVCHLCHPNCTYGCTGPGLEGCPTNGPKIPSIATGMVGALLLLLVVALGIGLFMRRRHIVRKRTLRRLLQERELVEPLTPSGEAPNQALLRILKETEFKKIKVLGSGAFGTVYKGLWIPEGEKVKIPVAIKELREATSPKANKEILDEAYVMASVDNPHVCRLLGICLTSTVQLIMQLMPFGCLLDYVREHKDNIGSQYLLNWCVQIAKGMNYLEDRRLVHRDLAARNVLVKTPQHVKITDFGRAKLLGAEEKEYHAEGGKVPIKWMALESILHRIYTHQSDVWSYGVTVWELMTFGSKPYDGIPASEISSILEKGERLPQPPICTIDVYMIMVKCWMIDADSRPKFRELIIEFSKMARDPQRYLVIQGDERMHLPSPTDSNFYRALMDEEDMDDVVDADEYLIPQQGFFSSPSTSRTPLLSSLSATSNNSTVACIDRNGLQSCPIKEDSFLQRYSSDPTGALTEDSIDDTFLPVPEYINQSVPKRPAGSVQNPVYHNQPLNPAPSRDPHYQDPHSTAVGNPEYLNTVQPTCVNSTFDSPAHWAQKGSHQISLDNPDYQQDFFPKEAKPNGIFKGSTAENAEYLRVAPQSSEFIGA
Sequence of EGFR L858R (P00533 25-1210 L858R): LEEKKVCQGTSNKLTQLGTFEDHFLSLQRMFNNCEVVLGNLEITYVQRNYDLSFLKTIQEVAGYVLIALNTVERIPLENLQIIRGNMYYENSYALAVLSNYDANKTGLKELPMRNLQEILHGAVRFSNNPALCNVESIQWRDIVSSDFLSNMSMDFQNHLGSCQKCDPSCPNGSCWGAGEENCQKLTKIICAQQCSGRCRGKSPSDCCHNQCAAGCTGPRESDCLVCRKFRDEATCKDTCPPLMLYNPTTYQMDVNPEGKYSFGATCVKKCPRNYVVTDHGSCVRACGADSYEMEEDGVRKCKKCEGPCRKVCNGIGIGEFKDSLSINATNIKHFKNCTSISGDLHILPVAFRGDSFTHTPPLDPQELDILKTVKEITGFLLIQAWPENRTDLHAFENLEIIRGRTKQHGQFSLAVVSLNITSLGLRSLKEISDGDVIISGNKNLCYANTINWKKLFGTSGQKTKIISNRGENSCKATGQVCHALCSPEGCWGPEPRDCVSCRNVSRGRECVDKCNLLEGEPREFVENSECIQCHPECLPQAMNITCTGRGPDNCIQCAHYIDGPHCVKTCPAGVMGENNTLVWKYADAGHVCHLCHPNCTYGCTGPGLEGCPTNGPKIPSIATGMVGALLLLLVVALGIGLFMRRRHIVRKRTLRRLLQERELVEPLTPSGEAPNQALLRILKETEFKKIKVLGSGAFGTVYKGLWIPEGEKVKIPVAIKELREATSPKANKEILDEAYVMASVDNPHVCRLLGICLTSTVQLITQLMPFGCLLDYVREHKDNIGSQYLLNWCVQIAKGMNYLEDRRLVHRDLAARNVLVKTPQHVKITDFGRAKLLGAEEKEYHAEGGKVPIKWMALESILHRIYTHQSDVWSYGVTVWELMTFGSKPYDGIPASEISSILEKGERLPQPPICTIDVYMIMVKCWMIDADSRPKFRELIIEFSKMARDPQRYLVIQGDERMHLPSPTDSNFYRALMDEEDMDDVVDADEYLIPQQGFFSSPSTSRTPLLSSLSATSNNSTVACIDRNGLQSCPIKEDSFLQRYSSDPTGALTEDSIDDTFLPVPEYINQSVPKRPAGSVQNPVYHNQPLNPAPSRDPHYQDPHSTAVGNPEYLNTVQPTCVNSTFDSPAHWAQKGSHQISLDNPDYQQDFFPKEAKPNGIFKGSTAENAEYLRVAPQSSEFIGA
Sequence of EGFR L858R/T790M (P00533 25-1210 T790M/L858R): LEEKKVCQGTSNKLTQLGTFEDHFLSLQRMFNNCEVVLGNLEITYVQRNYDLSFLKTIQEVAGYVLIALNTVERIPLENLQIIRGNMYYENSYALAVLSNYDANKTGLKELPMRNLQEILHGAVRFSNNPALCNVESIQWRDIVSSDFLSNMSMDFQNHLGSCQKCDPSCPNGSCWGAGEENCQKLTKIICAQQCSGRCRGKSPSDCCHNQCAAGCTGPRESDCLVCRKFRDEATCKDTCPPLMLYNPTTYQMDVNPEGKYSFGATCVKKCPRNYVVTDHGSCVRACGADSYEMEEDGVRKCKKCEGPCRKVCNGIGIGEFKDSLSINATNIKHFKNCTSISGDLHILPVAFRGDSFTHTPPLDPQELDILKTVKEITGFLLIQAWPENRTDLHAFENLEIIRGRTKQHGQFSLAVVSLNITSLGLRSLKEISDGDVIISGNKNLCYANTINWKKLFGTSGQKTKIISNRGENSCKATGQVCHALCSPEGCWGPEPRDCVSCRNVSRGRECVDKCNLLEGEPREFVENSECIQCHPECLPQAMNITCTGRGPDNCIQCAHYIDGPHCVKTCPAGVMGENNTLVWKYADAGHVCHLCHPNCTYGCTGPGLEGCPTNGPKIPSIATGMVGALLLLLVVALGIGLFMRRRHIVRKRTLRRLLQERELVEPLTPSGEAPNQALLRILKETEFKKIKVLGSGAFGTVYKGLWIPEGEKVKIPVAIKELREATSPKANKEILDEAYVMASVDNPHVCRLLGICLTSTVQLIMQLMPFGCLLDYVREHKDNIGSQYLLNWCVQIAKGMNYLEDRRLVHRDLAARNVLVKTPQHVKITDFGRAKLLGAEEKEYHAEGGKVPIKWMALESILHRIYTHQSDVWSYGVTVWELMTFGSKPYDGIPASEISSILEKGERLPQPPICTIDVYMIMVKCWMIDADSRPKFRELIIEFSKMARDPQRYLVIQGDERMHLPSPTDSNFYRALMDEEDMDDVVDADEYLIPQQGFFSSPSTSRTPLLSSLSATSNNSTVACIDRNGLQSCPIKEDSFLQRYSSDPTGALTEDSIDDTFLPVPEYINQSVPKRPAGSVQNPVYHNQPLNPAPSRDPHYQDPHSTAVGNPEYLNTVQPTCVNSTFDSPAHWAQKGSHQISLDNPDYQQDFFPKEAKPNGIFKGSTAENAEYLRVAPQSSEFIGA

As for `Cc1nc2cc(-c3ccc(C4CCN(C)CC4)cc3)ccc2c(=O)n1C(C(=O)Nc1nccs1)c1ccccc1` (centres unmarked) [Compound 054, 2-(2-Methyl-7-(4-(1-methylpiperidin-4-yl)phenyl)-4-oxoquinazolin-3(4H)-yl)-2-phenyl-N-(thiazol-2-yl)acetamide], the GI50 in test [1] (setting [2]) came to 410 nM; in test [1] (setting [3]), 2480 nM. For the same compound, the half-maximal inhibitory concentration (IC50) at EGFR L858R/T790M came out at 42 nM; against EGFR L858R it was 91 nM.
The matching figures for `Cc1nc2cc(-c3ccc(N4CCN(C)CC4)cc3)ccc2c(=O)n1C(C(=O)Nc1nccs1)c1ccccc1` (centres unmarked) [Compound 055, 2-(2-Methyl-7-(4-(4-methylpiperazin-1-yl)phenyl)-4-oxoquinazolin-3(4H)-yl)-2-phenyl-N-(thiazol-2-yl)-acetamide]: 1500 nM, 3940 nM, 79 nM and 264 nM.
For `CN1CCC(c2ccc(-c3cnc4c(=O)n(C(C(=O)Nc5nccs5)c5ccccc5)cnc4c3)cc2)CC1` (centres unmarked) [Compound 056, 2-(7-(4-(1-Methylpiperidin-4-yl)phenyl)-4-oxopyrido[3,2-d]pyrimidin-3(4H)-yl)-2-phenyl-N-(thiazol-2-yl)acetamide] the same measures were 410 nM, 3970 nM, 7 nM and 32 nM.
As to `CN1CCN(c2ccc(-c3cnc4c(=O)n(C(C(=O)Nc5nccs5)c5ccccc5)cnc4c3)cc2)CC1` (centres unmarked) [Compound 057, 2-(7-(4-(4-Methylpiperazin-1-yl)-phenyl)-4-oxopyrido[3,2-d]-pyrimidin-3(4H)-yl)-2-phenyl-N-(thiazol-2-yl)acetamide], the GI50 turned out to be 700 nM in test [1] (setting [2]) and 4730 nM in test [1] (setting [3]). The IC50 at EGFR L858R/T790M stood at 7 nM; against EGFR L858R it was 50 nM.
For `CN1CCC(c2ccc(-c3cnc4ncn(C(C(=O)Nc5nccs5)c5ccccc5)c(=O)c4c3)cc2)CC1` (centres unmarked) [Compound 058, 2-(6-(4-(1-Methylpiperidin-4-yl)phenyl)-4-oxopyrido[2,3-d]-pyrimidin-3(4H)-yl)-2-phenyl-N-(thiazol-2-yl)acetamide] the same measures were 12 nM, 930 nM, 2 nM and 8 nM.
For `CN1CCN(c2ccc(-c3cnc4ncn(C(C(=O)Nc5nccs5)c5ccccc5)c(=O)c4c3)cc2)CC1` (centres unmarked) [Compound 059, 2-(6-(4-(4-Methylpiperazin-1-yl)-phenyl)-4-oxopyrido[2,3-d]-pyrimidin-3(4H)-yl)-2-phenyl-N-(thiazol-2-yl)acetamide], the GI50 in test [1] (setting [2]) was determined as 84 nM; in test [1] (setting [3]), 1370 nM. In addition, the IC50 on EGFR L858R/T790M is 8 nM; against EGFR L858R, 48 nM.
The matching figures for `CN1CCC(c2ccc(-c3cc(F)c4ncn(C(C(=O)Nc5nccs5)c5ccccc5)c(=O)c4c3)cc2)CC1` (centres unmarked) [Compound 060, 2-(8-Fluoro-6-(4-(1-methylpiperidin-4-yl)phenyl)-4-oxoquinazolin-3-(4H)-yl)-2-phenyl-N-(thiazol-2-yl)-acetamide]: 9 nM, 710 nM, 0.6 nM and 4 nM.
The matching figures for `O=C(Nc1nccs1)C(c1cccnc1)n1cnc2ccc(Br)cc2c1=O` (centres unmarked) [Compound 062, 2-(6-Bromo-4-oxoquinazolin-3(4H)-yl)-2-(pyridin-3-yl)-N-(thiazol-2-yl)-acetamide]: > 10000 nM, > 10000 nM, 220 nM and > 1000 nM.
For `CN1CCN(c2ccc(-c3ccc4ncn(C(C(=O)Nc5nccs5)c5cccnc5)c(=O)c4c3)cc2)CC1` (centres unmarked) [Compound 064, 2-(6-(4-(4-Methylpiperazin-1-yl)-phenyl)-4-oxoquinazolin-3(4H)-yl)-2-(pyridin-3-yl)-N-(thiazol-2-yl)-acetamide] the same measures were 490 nM, 6150 nM, 5 nM and 78 nM.
With `CN1CCC(c2ccc(-c3ccc4ncn(C(C(=O)Nc5nccs5)c5cccnc5)c(=O)c4c3)cc2)CC1` (centres unmarked) [Compound 065, 2-(6-(4-(1-Methylpiperidin-4-yl)-phenyl)-4-oxoquinazolin-3(4H)-yl)-2-(pyridin-3-yl)-N-(thiazol-2-yl)-acetamide], the results for the GI50 in test [1] (setting [2]) and in test [1] (setting [3]) were 380 nM and 7810 nM, respectively. Moreover, the figures for the IC50 against EGFR L858R/T790M and against EGFR L858R were 2 nM and 29 nM, respectively.
Take `CN1CCC(c2ccc(-c3ccc4ncn(C(C(=O)Nc5nccs5)c5ccccc5F)c(=O)c4c3)cc2)CC1` (centres unmarked) [Compound 066, 2-(2-Fluorophenyl)-2-(6-(4-(1-methylpiperidin-4-yl)phenyl)-4-oxo-quinazolin-3(4H)-yl)-N-(thiazol-2-yl)-acetamide]: the GI50 came out at 20 nM in test [1] (setting [2]) and 1880 nM in test [1] (setting [3]). The IC50 at EGFR L858R/T790M was 0.2 nM; against EGFR L858R it was 2 nM.
For `CN1CCN(c2ccc(-c3ccc4ncn(C(C(=O)Nc5nccs5)c5ccccc5F)c(=O)c4c3)cc2)CC1` (centres unmarked) [Compound 067, 2-(2-fluorophenyl)-2-(6-(4-(4-methylpiperazin-1-yl)phenyl)-4-oxo-quinazolin-3(4H)-yl)-N-(thiazol-2-yl)-acetamide] the same measures were 41 nM, 3960 nM, 1 nM and 13 nM.
`CN1CCC(c2ccc(-c3ccc4ncn(C(C(=O)Nc5nccs5)c5ccccn5)c(=O)c4c3F)cc2)CC1` (centres unmarked) [Compound 068, 2-(5-Fluoro-6-(4-(1-methylpiperidin-4-yl)phenyl)-4-oxoquinazolin-3(4H)-yl)-2-(pyridin-2-yl)-N-(thiazol-2-yl)-acetamide]: the figures for the GI50 in test [1] (setting [2]) and in test [1] (setting [3]) were 18 nM and 1560 nM, respectively. The IC50 against EGFR L858R/T790M is 0.7 nM; against EGFR L858R, 5 nM.
The matching figures for `CN1CCC(c2ccc(-c3ccc4ncn(C(C(=O)Nc5nccs5)c5cccc(F)c5)c(=O)c4n3)cc2)CC1` (centres unmarked) [Compound 069, 2-(3-Fluorophenyl)-2-(6-(4-(1-methylpiperidin-4-yl)phenyl)-4-oxo-pyrido[3,2-d]pyrimidin-3(4H)-yl)-N-(thiazol-2-yl)acetamide]: 28 nM, 2810 nM, 0.5 nM and 7 nM.
The matching figures for `CN1CCC(c2ccc(-c3ccc4ncn(C(C(=O)Nc5nccs5)c5cccc(F)c5)c(=O)c4c3F)cc2)CC1` (centres unmarked) [Compound 070, 2-(5-Fluoro-6-(4-(1-methylpiperidin-4-yl)phenyl)-4-oxoquinazolin-3-(4H)-yl)-2-(3-fluorophenyl)-N-(thiazol-2-yl)acetamide]: 5 nM, 550 nM, 0.2 nM and 1 nM.
For `CN1CCN(c2ccc(-c3ccc4ncn(C(C(=O)Nc5nccs5)c5ccccc5)c(=O)c4c3F)cc2)CC1` (centres unmarked) [Compound 071, 2-(5-Fluoro-6-(4-(4-methyl-piperazin-1-yl)phenyl)-4-oxo-quinazolin-3(4H)-yl)-2-phenyl-N-(thiazol-2-yl)acetamide], the GI50 stood at 20 nM in test [1] (setting [2]) and 2370 nM in test [1] (setting [3]). The IC50 against EGFR L858R/T790M is 0.7 nM; against EGFR L858R, 5 nM.
The matching figures for `CN1CCN(c2ccc(-c3ccc4ncn(C(C(=O)Nc5nccs5)c5ccccc5)c(=O)c4n3)cc2)CC1` (centres unmarked) [Compound 072, 2-(6-(4-(4-Methylpiperazin-1-yl)-phenyl)-4-oxopyrido[3,2-d]-pyrimidin-3(4H)-yl)-2-phenyl-N-(thiazol-2-yl)acetamide]: 55 nM, 1600 nM, 1 nM and 12 nM.
The matching figures for `CN1CCC(c2ccc(-c3ccc4ncn(C(C(=O)Nc5nccs5)c5ccccc5)c(=O)c4n3)cc2)CC1` (centres unmarked) [Compound 073, 2-(6-(4-(1-Methylpiperidin-4-yl)-phenyl)-4-oxopyrido[3,2-d]-pyrimidin-3(4H)-yl)-2-phenyl-N-(thiazol-2-yl)acetamide]: 15 nM, 1940 nM, 0.6 nM and 7 nM.
Turning to `CN1CCC(c2ccc(-c3ccc4ncn(C(C(=O)Nc5ccccn5)c5cccc(F)c5)c(=O)c4c3F)cc2)CC1` (centres unmarked) [Compound 074, 2-(5-Fluoro-6-(4-(1-methylpiperidin-4-yl)phenyl)-4-oxoquinazolin-3-(4H)-yl)-2-(3-fluorophenyl)-N-(pyridin-2-yl)acetamide], the GI50 was 22 nM in test [1] (setting [2]) and 2350 nM in test [1] (setting [3]). In addition, the values for the concentration for half-maximal inhibition (IC50) against EGFR L858R/T790M and on EGFR L858R were 0.6 nM and 6 nM, respectively.
In the case of `CN1CCC(c2ccc(-c3ccc4ncn(C(C(=O)Nc5nccs5)c5ccccc5F)c(=O)c4c3F)cc2)CC1` (centres unmarked) [Compound 075, 2-(5-Fluoro-6-(4-(1-methylpiperidin-4-yl)phenyl)-4-oxoquinazolin-3-(4H)-yl)-2-(2-fluorophenyl)-N-(thiazol-2-yl)acetamide], the GI50 in test [1] (setting [2]) was determined as 7 nM; in test [1] (setting [3]) it was 1030 nM. Besides, the concentration for half-maximal inhibition (IC50) at EGFR L858R/T790M was determined as 0.1 nM; against EGFR L858R it was 1 nM.

The values are drawn from patent US12622909B2, “Allosteric EGFR inhibitors and methods of use thereof” (Dana-Farber Cancer Institute, Inc., priority 2019, dated 2026).
